Results reported in US20150329558A1, “FUSED HETEROCYCLIC COMPOUNDS AS ION CHANNEL MODULATORS” (Gilead Sciences, Inc., priority 2011, published 2015).
Where two headings read alike, the source gives them in different places.

Key:
[1] = target: wild-type human cardiac sodium channel, hNav1.5 (late INa) (Homo sapiens, UniProt Q14524); assay: Late INa screening assay (QPatch whole cell patch clamp); assay type: cell-based
Procedure, shortened: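 HEK293 cells stably expressing hNav1.5 alpha subunit without beta subunits, QPatch automated whole-cell clamp at 23-25° C, CsF-based internal solution pH 7.4. Late INa induced by 10 μM tefluthrin; 250 ms steps to −20 mV from −120 mV at 0.1 Hz, compounds at 1 μM. Percent block of mean current 225–250 ms into the step.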

[2] = target: wild-type human cardiac sodium channel, hNav1.5 (peak INa) (Homo sapiens, UniProt Q14524); assay: Peak INa screening assay (tonic and use-dependent block); assay type: cell-based
Sequence of wild-type human cardiac sodium channel, hNav1.5 (peak INa) (Q14524 whole entry): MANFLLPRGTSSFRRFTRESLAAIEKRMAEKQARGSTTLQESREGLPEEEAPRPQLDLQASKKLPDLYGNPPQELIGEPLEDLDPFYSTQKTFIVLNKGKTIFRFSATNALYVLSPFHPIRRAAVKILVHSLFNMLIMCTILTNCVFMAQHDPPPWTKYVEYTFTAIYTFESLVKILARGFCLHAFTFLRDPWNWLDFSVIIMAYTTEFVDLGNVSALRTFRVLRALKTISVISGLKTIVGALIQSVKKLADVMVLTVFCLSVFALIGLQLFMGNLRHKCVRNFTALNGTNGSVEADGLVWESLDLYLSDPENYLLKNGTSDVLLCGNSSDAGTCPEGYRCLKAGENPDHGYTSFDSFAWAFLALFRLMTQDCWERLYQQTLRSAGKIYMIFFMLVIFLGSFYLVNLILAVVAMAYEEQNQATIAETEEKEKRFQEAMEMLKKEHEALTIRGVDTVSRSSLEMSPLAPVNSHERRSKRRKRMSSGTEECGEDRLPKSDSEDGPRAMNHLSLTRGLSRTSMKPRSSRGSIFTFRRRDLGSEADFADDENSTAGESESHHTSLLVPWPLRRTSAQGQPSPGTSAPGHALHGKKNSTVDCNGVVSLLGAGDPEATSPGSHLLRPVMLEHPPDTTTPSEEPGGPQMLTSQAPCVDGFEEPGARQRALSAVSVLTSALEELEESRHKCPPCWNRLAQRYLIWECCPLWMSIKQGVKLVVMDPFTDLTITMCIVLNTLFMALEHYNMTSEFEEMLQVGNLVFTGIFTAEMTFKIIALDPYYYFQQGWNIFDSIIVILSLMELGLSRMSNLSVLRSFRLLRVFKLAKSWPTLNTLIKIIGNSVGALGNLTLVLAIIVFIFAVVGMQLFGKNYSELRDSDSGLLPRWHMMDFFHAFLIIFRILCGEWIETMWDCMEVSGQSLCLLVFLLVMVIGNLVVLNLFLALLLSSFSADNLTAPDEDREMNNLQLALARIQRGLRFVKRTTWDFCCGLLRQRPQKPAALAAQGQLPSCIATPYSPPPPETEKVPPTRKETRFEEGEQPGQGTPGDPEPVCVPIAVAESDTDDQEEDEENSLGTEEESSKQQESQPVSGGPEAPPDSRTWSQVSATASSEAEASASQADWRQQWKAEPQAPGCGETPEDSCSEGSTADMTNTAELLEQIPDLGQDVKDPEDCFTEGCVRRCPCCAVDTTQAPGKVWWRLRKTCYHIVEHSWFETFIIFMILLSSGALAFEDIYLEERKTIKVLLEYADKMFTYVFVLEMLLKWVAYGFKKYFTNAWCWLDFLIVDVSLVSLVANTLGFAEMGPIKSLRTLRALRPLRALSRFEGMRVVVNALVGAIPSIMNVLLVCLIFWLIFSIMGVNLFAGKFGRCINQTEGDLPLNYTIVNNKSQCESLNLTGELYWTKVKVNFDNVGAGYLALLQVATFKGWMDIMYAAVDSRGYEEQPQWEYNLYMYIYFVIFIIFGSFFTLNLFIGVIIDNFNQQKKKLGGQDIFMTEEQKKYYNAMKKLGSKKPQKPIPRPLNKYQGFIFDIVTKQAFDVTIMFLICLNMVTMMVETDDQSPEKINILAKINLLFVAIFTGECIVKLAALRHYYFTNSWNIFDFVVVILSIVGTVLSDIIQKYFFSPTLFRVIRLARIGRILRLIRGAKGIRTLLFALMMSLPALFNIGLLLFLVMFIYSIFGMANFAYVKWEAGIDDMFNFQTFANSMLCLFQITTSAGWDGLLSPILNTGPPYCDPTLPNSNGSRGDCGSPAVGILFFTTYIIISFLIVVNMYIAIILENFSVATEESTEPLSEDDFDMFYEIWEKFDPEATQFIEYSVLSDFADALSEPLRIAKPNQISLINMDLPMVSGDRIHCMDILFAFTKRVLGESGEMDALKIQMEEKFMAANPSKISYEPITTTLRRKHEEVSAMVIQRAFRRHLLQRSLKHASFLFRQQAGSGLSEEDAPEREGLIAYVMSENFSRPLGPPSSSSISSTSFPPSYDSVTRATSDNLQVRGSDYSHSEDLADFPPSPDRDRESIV
Protocol: The late sodium current (Late INa) and peak sodium current (Peak INa) assays are performed on an automated electrophysiology platform, QPatch 16× (Sophion Bioscience, Copenhagen, Denmark), which uses the whole cell patch clamp technique to measure currents through the cell membrane of up to 16 cells at a time. The assay uses an HEK293 (human embryonic kidney) cell line heterologously expressing the wild-type human cardiac sodium channel, hNav1.5, purchased from Millipore (Billerica, Mass.). No beta subunits were coexpressed with the Na channel alpha subunit. Cells are maintained with standard tissue culture procedures and stable channel expression is maintained with 400 μg/mL Geneticin in the culture medium. […] Experiments are carried out at 23-25° C. For both the Late INa and Peak INa assays, series resistance compensation is set to 100% and series resistance and whole-cell compensation are performed automatically. Currents are digitized at 25 kHz and low-pass filtered at 12 kHz and 10 kHz for the late and peak INa assays, respectively. Currents through open sodium channels are automatically recorded and stored in the Sophion Bioscience Oracle database (Sophion Bioscience, Copehagen, Denmark). Analysis is performed using QPatch Assay and database software and data are compiled in Excel. Compound stocks are routinely made by the Gilead Sample Bank in plastic vials to 10 mM in dimethyl sulfoxide (DMSO). In some cases, when compounds are not soluble in DMSO, they are made in 100% ethanol. Stocks are sonicated as necessary. […] The intracellular solution used to perfuse the inside of the cells for both the Late INa and Peak INa assays contains: 120 mM CsF, 20 mM CsCl, 5 mM EGTA, 5 mM HEPES and pH adjusted to 7.4 with CsOH. Compounds are diluted in extracellular solution to 1 μM in glass vials and then transferred to glass well plates before robotic addition to the cells. […] Compounds were also evaluated for their effect in several other assays, including their effect on Peak INa. Good separation between the concentrations of test compound to reduce late and peak INa is beneficial to enable separation of the desired effect to reduce late INa-induced electrical and mechanical dysfunction from the undesired effect to reduce peak INa, which can lead to slowing or block of conduction of electrical excitation in the heart. It is contemplated that the compounds of Formula I avoid significant block of peak INa. Since the peak INa in the cells used herein can be very large, introducing artifacts in the recording, the concentration of Na^+ in the bath can be reduced to 20 mM and a nonpermeant cation added to compensate for the Na^+ that was removed to maintain the osmolarity and ionic strength of the solution (see solution details below). Analysis of peak INa generally requires correction for rundown before determining the % block of peak current by the tested compound. […] A low stimulation frequency of 0.1 Hz was used to determine the effect of the test compound when the channel spent most of the time in the resting (closed) state and provides information about Tonic Block (TB). A higher stimulation frequency (3 Hz) was used to measure block of the channel when it spent more time in the activated and inactivated states and provided a measure of Use-Dependent Block (UDB). Use-dependent block refers to the accumulation of block with increased frequency of channel activation. Block of cardiac peak INa by compounds of this invention is increased with an increase in the frequency of stimulation from 0.1 to 1-5 Hz (frequencies encountered either in the normal heart or during tachycardia). It is therefore expected that reduction of peak INa by compounds of this invention will be greater at high heart rates, such as those during tachyarrhythmias, than at normal heart rates. […]

[3] = Microsomal stability assay, rat; assay type: in vitro ADME; settings: metabolic stability, rat liver microsomes 0.5 mg/mL, substrate 3 uM
Protocol: (§1) The micorsomal stability assay is generally performed as follows. Format: 15 compounds (and 1 control verapamil) in 3 different species in duplicate sets Substrate: 3 uM Protein concentration: 0.5 mg/mL (for dog, rat, and human liver microsomes) Cofactor: 1×NADPH-Regenerating system Time-points: 2, 12, 25, 45, and 65 minutes [table] Sample preparation: 25 uL at each timepoint is added to plate with 225 uL quenching solution (50% MeOH, 25% ACN, 25% H2O, and 50 nM […]). After plates are vortexed, centrifuge for 30 minutes. Microsomal solutions: take 400 uL of 20 mg/mL microsomes and add to 13,680 uL 100 mM KPO4 buffer. Using an 8-channel, add 650 uL of this solution to the designated two columns on a short plate. The order should be dog microsomes in columns 1 and 2, rat microsomes in columns 3 and 4, and human microsomes in columns 5 and 6. Keep on ice before use. Place this plate in incubator 1 on the TECAN countertop.

[4] = Microsomal stability assay, dog; assay type: in vitro ADME; settings: metabolic stability, dog liver microsomes 0.5 mg/mL, substrate 3 uM
Protocol: as §1

[5] = Microsomal stability assay, human; assay type: in vitro ADME; settings: metabolic stability, human liver microsomes 0.5 mg/mL, substrate 3 uM
Protocol: as §1

[6] = percent block of late INa, compound at 1 μM, 10 μM Tefluthrin, HEK293 hNav1.5, read-out: Late INa 1 μM
[7] = tonic block of peak INa, 0.1 Hz, 1 μM, read-out: Peak TB 1 μM
[8] = use-dependent block of peak INa, 3 Hz, 1 μM, read-out: Peak UDB 1 μM

Sequence of wild-type human cardiac sodium channel, hNav1.5 (late INa) (Q14524 whole entry): as above

Structure (SMILES) | MS Rat THalf [3] | MS Dog THalf [4] | MS Human THalf [5] | inhibition at 1 µM [1, 6] | inhibition at 1 µM [2, 7] | inhibition at 1 µM [2, 8] | inhibition at 1 µM ([1]; % inhibition at 1 μM, read-out: NAv1.5*-LATE-) | inhibition at 1 µM ([2]; % inhibition at 1 μM, tonic block, read-out: NAv1.5*-PEAK-TB-) | inhibition at 1 µM ([2]; % inhibition at 1 μM, use-dependent block 3 Hz, read-out: NAv1.5*-PEAK-UDB-3 HZ-) | inhibition at 1 µM ([2]; read-out: Peak TB 1 μM) | inhibition at 1 µM ([2]; read-out: Peak UDB 1 μM)
O=c1c2cc(-c3ccc(OC(F)(F)F)cc3)ccc2nnn1Cc1ncccn1 [II-24, 3-(pyrimidin-2-ylmethyl)-6-(4-(trifluoromethoxy)phenyl)benzo[d][1,2,3]triazin-4(3H)-one] | 324 min | 219 min | > 395 min | 60% | 19% | 24% | – | – | – | – | –
Cc1cc(Cn2nnc3ccc(-c4ccc(OC(F)(F)F)cc4)cc3c2=O)on1 [II-25, 3-((3-methylisoxazol-5-yl)methyl)-6-(4-(trifluoromethoxy)phenyl)benzo[d][1,2,3]triazin-4(3H)-one] | 298 min | 117 min | 363 min | 50% | 9% | 2% | – | – | – | – | –
Cc1cc(Cn2nnc3ccc(-c4ccc(OC(F)(F)F)cc4)cc3c2=O)no1 [II-26, 3-((5-methylisoxazol-3-yl)methyl)-6-(4-(trifluoromethoxy)phenyl)benzo[d][1,2,3]triazin-4(3H)-one] | 80 min | 67 min | 382 min | 47% | 14% | 5% | – | – | – | – | –
O=c1c2cc(-c3ccc(Oc4ccc(Cl)cc4)cc3)ccc2nnn1CCn1cccn1 [II-29, 3-(2-(1H-pyrazol-1-yl)ethyl)-6-(4-(4-chlorophenoxyl)phenyl)benzo[d][1,2,3]triazin-4(3H)-one] | 27 min | 99 min | 51 min | 52% | 44% | 67% | – | – | – | – | –
Cc1nccn1CC1(Cn2nnc3ccc(-c4ccc(OC(F)(F)F)cc4)cc3c2=O)CC1 [II-34, 3-((1-((2-methyl-1H-imidazol-1-yl)methyl)cyclopropyl)methyl)-6-(4-(trifluoromethoxy)phenyl)benzo[d][1,2,3]triazin-4(3H)-one] | 2 min | 2 min | 2 min | 48% | 27% | 34% | – | – | – | – | –
COc1cc(OC)nc(Cn2nnc3ccc(-c4ccc(OC(F)(F)F)cc4)cc3c2=O)n1 [II-44, 3-((4,6-dimethoxypyrimidin-2-yl)methyl)-6-(4-(trifluoromethoxy)phenyl)benzo[d][1,2,3]triazin-4(3H)-one] | 97 min | 283 min | 167 min | 47% | 10% | 4% | – | – | – | – | –
O=c1c2cc(-c3ccc(OC(F)(F)F)cc3)ccc2nnn1Cc1cc(-c2ccccn2)on1 [II-47, 3-((5-(pyridin-2-yl)isoxazol-3-yl)methyl)-6-(4-(trifluoromethoxy)phenyl)benzo[d][1,2,3]triazin-4(3H)-one] | 71 min | 24 min | 339 min | 44% | 6% | 4% | – | – | – | – | –
COC(=O)C1(Cn2nnc3ccc(-c4ccc(OC(F)(F)F)cc4)cc3c2=O)CC1 [II-55, methyl 1-((4-oxo-6-(4-(trifluoromethoxy)phenyl)benzo[d][1,2,3]triazin-3 (4H)-yl)methyl)cyclopropanecarboxylate] | 2 min | 2 min | 14 min | 58% | 7% | 3% | 58% | 7% | 3% | – | –
O=c1c2cc(-c3ccc(OC(F)(F)F)cc3)ccc2nnn1CC1(COc2ncccn2)CC1 [II-80, 3-((1-((pyrimidin-2-yloxy)methyl)cyclopropyl)methyl)-6-(4-(trifluoromethoxy)phenyl)benzo[d][1,2,3]triazin-4(3H)-one] | 34 min | 85 min | 49 min | 42% | – | – | – | – | – | 8% | 7%

Second part, led by results:

MS Rat THalf [3] | MS Dog THalf [4] | MS Human THalf [5] | Structure (SMILES) | inhibition at 1 µM [1, 6] | inhibition at 1 µM [2, 7] | inhibition at 1 µM [2, 8] | inhibition at 1 µM ([1]; % inhibition at 1 μM, read-out: NAv1.5*-LATE-) | inhibition at 1 µM ([2]; % inhibition at 1 μM, tonic block, read-out: NAv1.5*-PEAK-TB-) | inhibition at 1 µM ([2]; % inhibition at 1 μM, use-dependent block 3 Hz, read-out: NAv1.5*-PEAK-UDB-3 HZ-) | inhibition at 1 µM ([2]; read-out: Peak TB 1 μM) | inhibition at 1 µM ([2]; read-out: Peak UDB 1 μM)
31 min | 36 min | 34 min | O=c1c2cc(-c3ccc(OC(F)(F)F)cc3)ccc2nnn1CC1(CN2CCCC2)CC1 [II-63, 3-((1-(pyrrolidin-1-ylmethyl)cyclopropyl)methyl)-6-(4-(trifluoromethoxy)phenyl)benzo[d][1,2,3]triazin-4(3H)-one] | 46% | 23% | 50% | – | – | – | – | –
16 min | 7 min | 11 min | Cc1cc(C)n(CC2(Cn3nnc4ccc(-c5ccc(OC(F)(F)F)cc5)cc4c3=O)CC2)n1 [II-64, 3-((1-((3,5-dimethyl-1H-pyrazol-1-yl)methyl)cyclopropyl)methyl)-6-(4-(trifluoromethoxy)phenyl)benzo[d][1,2,3]triazin-4(3H)-one] | 43% | 3% | 9% | – | – | – | – | –
29 min | 5 min | 16 min | Cc1noc(Cn2nnc3ccc(-c4ccc(C5CC5)cc4)cc3c2=O)n1 [II-73, 6-(4-cyclopropylphenyl)-3-((3-methyl-1,2,4-oxadiazol-5-yl)methyl)benzo[d][1,2,3]triazin-4(3H)-one] | 45% | 6% | 1% | – | – | – | – | –
75 min | 85 min | 371 min | O=c1c2cc(-c3ccc(OC(F)(F)F)cc3)ccc2nnn1CC1(CO)CC1 [II-75, 3-((1-(hydroxymethyl)cyclopropyl)methyl)-6-(4-(trifluoromethoxy)phenyl)benzo[d][1,2,3]triazin-4(3H)-one] | 53% | 11% | 7% | – | – | – | – | –
34 min | 81 min | 84 min | Cc1cnc(Cn2nnc3ccc(-c4ccc(OC(F)(F)F)cc4)cc3c2=O)o1 [II-96, 3-((5-methyloxazol-2-yl)methyl)-6-(4-(trifluoromethoxy)phenyl)benzo[d][1,2,3]triazin-4(3H)-one] | 51% | 10% | 5% | – | – | – | – | –
